Assay results taken from US20020068692A1, “Method for the treatment of neurological or neuropsychiatric disorders” (priority 1996, published 2002).

Tests used:
[1] = tested on: patient with Parkinson's disease; assay: Bright light therapy plus oral atenolol in patients with Parkinson's disease; format: in vivo, human
Experimental: One patient, diagnosed 3 years earlier with Parkinson's disease, was exposed to bright light therapy (1500 lux) for two, 1 hour sessions per day, one before retiring and one immediately upon arising to antagonize melatonin secretion. This patient was also prescribed 50 mg of the β-noradrenergic antagonist, Atenolol, before going to bed. The patient's performance on motor tests and their body weight were measured before treatment commenced and 2 weeks later. A second patient, diagnosed with Parkinson's disease at least 10 years previously, was tested on the same tests as the first patient.

[2] = tested on: marmosets made Parkinsonian with the neurotoxin MPTP; assay: Oral ML-23 in marmosets made Parkinsonian with MPTP (blinded experiment); format: in vivo
Experimental: The ML-23 formulation was prepared by dissolving ML-23 in 100% DSMO (dimethylsulfoxide 0.7 ml) and then making up to volume (2.3 ml) with soy bean oil for oral administration.

6-OHDA treated rats = assay: Melatonin antagonist therapy in the 6-OHDA rat model (12 hr light/12 hr dark); format: in vivo
Experimental: (§1) After several days of control observations, animals were injected bilaterally with 2 μl of an 8 μg/μl solution of 6-OHDA. Body weight was measured each day just after the onset of the light cycle and motor performance was measured by assessing the performance of animals in the open field and on three tests routinely used to assess motor function. Open field activity was measured in a PVC box fitted with infrared sensors. The number of beams broken during a 10 minute test period was registered. The three reflex tests employed were latency to retract a limb elevated 25 cm above the surface of the test area, latency to step up or down from a raised platform when the rear torso was elevated 30 cm above the test area surface and latency to step outside a prescribed area.
The compound ML-23 was tested in the 6-OHDA model described in Example 1 using a 12 hr light/12 hr dark cycle. Briefly, animals were subject to 13 days controlled observation, on day 14 they were injected with 6-OHDA. Animals in the treatment group were given melatonin antagonist (ML-23 in DMSO (3 mg per mL)) therapy (3 mg/kg/ml, interperitoneal injection (ip)) once on the day of 6-OHDA injection and then twice daily for the 3 subsequent days.
A second melatonin antagonist, S-20928, was tested in the 6-OHDA model described in Examples 1 and 7.

[3] = tested on: rats receiving intraperitoneal injections of MPTP; assay: Intracerebroventricular melatonin implants in the MPTP rat model; format: in vivo
Experimental: The rats were implanted with intracerebral melatonin pellets or inert nylon as described in Example 3 with the exception that they were not implanted with intrahypothalamic cannulae. After the control performance was assessed, all animals received intraperitoneal injections of MPTP on day 4 (7 mg/kg/i.p.). Given that the effects of MPTP are less prolonged and traumatic than 6-OHDA, this provided an opportunity to study the phenomenon of recovery. Body weight was measured daily and motor performance was measured 1 h and 2 days after injection.

[4] = tested on: patients suffering from Parkinson's disease; conditions: cited from earlier work
[5] = tested on: rats receiving intracerebral injections of 6-OHDA; assay: Intracerebroventricular melatonin implants in the 6-OHDA rat model; format: in vivo
Experimental: as §1
In order to produce a sustained central release of melatonin, Regulin® pellets were implanted into the left cerebral ventricle of rats at the time of cannulation of the posterior, lateral hypothalamus (PLH). Control rats were implanted with inert nylon pellets of the same dimensions. […] Animals were cannulated and tested as described in Example 1.

[6] = ML-23 3 mg/kg ip, once on day of 6-OHDA then twice daily for 3 days

SMILES: CC(C)NCC(O)COc1ccc(CC(N)=O)cc1 (stereo not shown) [Atenolol]
- time taken to walk a 3 meter path and return ([1]; first patient, after 2 weeks of bright light (1500 lux, two 1 hour sessions per day) plus Atenolol 50 mg, 31.3 seconds before treatment): 13.5 s
- gain in body weight ([1]; first patient, after 2 weeks of treatment): 3 kilos
- tremor and rigidity ([1]; first patient, after treatment): improved
- memory loss and mental state ([1]; first patient, after treatment, permitted a decrease of daily 1-dopa dose): improved
- time taken to lift foot to knee and return it to the floor 10 times ([1]; first patient, either leg, two weeks after treatment, 58 s (R) 65 s (L) before treatment): 44 s
- latency to touch knee with foot and return to the floor 10 times ([1]; second patient, bright light (1000 lux) 1 hour morning and night plus Atenolal 50 mg, after 5 weeks of treatment, FIG. 26): improved dramatically

SMILES: COc1ccc2c(c1)C(CCNc1cccc([N+](=O)[O-])c1[N+](=O)[O-])CN2 (stereo not shown) [ML-23]
- number of changes in head movement ([2]; ML-23 oral 5 mg/kg twice daily for 52 days, vehicle 9.5, p=0.006): 19.8
- horizontal movement at night ([2]; ML-23 oral 5 mg/kg twice daily for 52 days, vehicle 35 counts, p=0.01): 80 counts per 30 minutes
- vertical movement ([2]; ML-23 oral 5 mg/kg twice daily for 52 days, vehicle 308, p-0.01): 594 per 30 minutes
- intake of dry food ([2]; ML-23 oral, vehicle 1 gram per day, p=0.0001): 3 grams per day
- psychotic features score (agitation, frantic non-regulatory biting, vocalization, obstinate progression) ([2]; positive symptoms 48 hours after MPTP treatment, oral ML-23, vehicle score=10, p=0.0005): 2.5
- overall clinical rating of Parkinsonian behavior ([2]; scale 0= normal to 20= severely Parkinsonian, ML-23 oral 5 mg/kg twice daily, vehicle 8.4, p-0.006): 1.4
- horizontal and vertical movement, particularly at night (6-OHDA treated rats; ML-23 3 mg/kg ip): significantly improved
- overall performance versus vehicle following 6-ODHA injection (6-OHDA treated rats; ML-23 3 mg/kg ip): performed better than those treated with vehicle
- body weight loss (6-OHDA treated rats; [6]): prevented the severe body weight loss
- development of severe motor impairment (6-OHDA treated rats; [6]): prevented the development of severe motor impairment
- survival / recovery (6-OHDA treated rats; ML-23 3 mg/kg ip, 3 out of 7 animals in the 6-ODHA/vehicle group died within 6 days): all rats treated with ML-23 recovered
- latency to perform the 3 motor tests (retract a limb, step, ambulate) (6-OHDA treated rats; ML-23 3 mg/kg ip, test and recovery periods): improved

SMILES: O=C(NCCc1cccc2ccccc12)C1CCC1 [S-20928]
- body weight (most resilient consequence of DA degeneration) (6-OHDA treated rats; S-20928 1 mg/kg ip): capable of repairing
- morbidity of the disease (6-OHDA treated rats; S-20928 1 mg/kg ip): decreases the morbidity of the disease
- survival time (6-OHDA treated rats; S-20928 1 mg/kg ip): increases survival time

SMILES: COc1ccc2[nH]cc(CCNC(C)=O)c2c1 [melatonin]
- body weight gain ([3]; melatonin implants vs nylon, MPTP 7 mg/kg i.p. on day 4, p=0.0201, FIG. 22A/B): did not gain as much weight
- ability to step, assessed during the night ([3]; melatonin implants vs nylon, p=0.0238, FIG. 24): significant decrement in the ability to step
- motor impairment after MPTP (open field locomotion) ([3]; melatonin pellets vs nylon, overall performance p=0.0344, night trend p=0.0638, FIG. 23A/B): increased the motor impairment
- amelioration of the clinical features of Parkinson's disease ([4]; daily doses of 1000-1200 mg of melatonin per day, ref (18)): 20-36%
- tremor ([4]; daily doses of 1000-1200 mg of melatonin per day, ref (19)): significant reduction in tremor
- cardinal features of Parkinson's disease, replication study ([4]; similar doses over the same time period, ref (20)): did not improve the cardinal features
- reduction in open field performance relative to animals implanted with inert nylon ([5]; melatonin implants after 6-OHDA): more than twice as much
- loss of body weight after 6-OHDA ([5]; melatonin implants vs nylon implants, day 16 to end of experiment, p=0.0143, FIG. 14): more severe loss of body weight
- overall change in open field performance and that during the test session ([5]; melatonin implants vs nylon implants, p=0.0022, FIGS. 15A and B): significantly worse
- performance on the 3 motor tests (limb retraction, step, ambulate) ([5]; melatonin implants vs nylon, FIGS. 16-18): slower than the animals implanted with nylon although not significant
